Laboratory results from PubChem BioAssay (NCI).
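In this assay, cells in 96-well plates receive the compound at five concentrations for 48 hours. Endpoints are linearly interpolated between the surrounding concentrations. The concentration for 50% growth inhibition is given as GI50. TGI denotes the concentration required for complete inhibition of growth.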

Legend:
Experiment in all cases: NCI-60 cell line screen, 48 h
MCF7 breast = system: MCF7 breast
SK-MEL-28 melanoma = system: SK-MEL-28 melanoma
UACC-62 melanoma = system: UACC-62 melanoma
ACHN renal = system: ACHN renal
SK-OV-3 ovarian = system: SK-OV-3 ovarian
CCRF-CEM leukemia = system: CCRF-CEM leukemia
SN12C renal = system: SN12C renal
MALME-3M melanoma = system: MALME-3M melanoma
HT29 colon = system: HT29 colon
HOP-62 NSCLC = system: HOP-62 NSCLC

Structure (SMILES) | GI50 (MCF7 breast) | TGI (MCF7 breast) | GI50 (SK-MEL-28 melanoma) | TGI (SK-MEL-28 melanoma) | GI50 (UACC-62 melanoma) | TGI (UACC-62 melanoma) | GI50 (ACHN renal) | TGI (ACHN renal) | GI50 (SK-OV-3 ovarian) | TGI (SK-OV-3 ovarian) | GI50 (CCRF-CEM leukemia) | GI50 (SN12C renal) | TGI (SN12C renal) | GI50 (MALME-3M melanoma) | TGI (MALME-3M melanoma) | GI50 (HT29 colon) | TGI (HT29 colon) | GI50 (HOP-62 NSCLC) | TGI (HOP-62 NSCLC) | TGI (CCRF-CEM leukemia)
CCSC1=CC(=O)c2ccccc2C1=O | 4.12 µM | 15.1 µM | 14.4 µM | 28.9 µM | 4.79 µM | 17.2 µM | 1.27 µM | 2.65 µM | 18.1 µM | 32 µM | 0.374 µM | 14.5 µM | 28.6 µM | 1.99 µM | 5.34 µM | 15.5 µM | 34.7 µM | 15.3 µM | 28.7 µM | 
c1ccc(-c2nc(N3CCNCC3)c3nc(-c4ccccc4)oc3n2)cc1 | 1.7 µM | 3.58 µM | 1.81 µM | 3.29 µM | 1.78 µM | 3.23 µM | 1.71 µM | 3.09 µM | 2 µM | 3.71 µM | 1.38 µM | 1.69 µM | 3.29 µM | 1.7 µM | 3.19 µM | 1.84 µM | 3.85 µM | 1.98 µM | 3.94 µM | 3.83 µM
COc1ccc2c(c1)OC13Oc4cc(OC)ccc4C=C1CCCC3=C2 | 4.8 µM | > 100 µM | > 100 µM | > 100 µM | 4.5 µM | > 100 µM | > 100 µM | > 100 µM | > 100 µM | > 100 µM | 5.88 µM | > 100 µM | > 100 µM | > 100 µM | > 100 µM | > 100 µM | > 100 µM | > 100 µM | > 100 µM | > 100 µM
